Laboratory results published in patent US9162992B2, “Compounds and compositions for treatment of breathing control disorders or diseases” (GALLEON PHARMACEUTICALS, INC., priority 2010, dated 2015).

Tests used:
[1] = tested on: opioid-induced respiratory depression; assay: Opioid-induced respiratory depression in the monkey; type: in vivo, Macaca fascicularis; conditions: 0.20 mg/kg/min 5 min, then 0.10 mg/kg/min 10 min
Protocol: Juvenile macaques (four-year-old Macaca fascicularis, 2 to 5 kg, n=13) were used for the study. Animal husbandry was conducted under USDA guidelines and the protocols were approved by the Institutional Animal Care and Use Committee of East Carolina University.
Anesthesia was induced with 5% isoflurane and then maintained with 1.5 to 2% isoflurane (100% O2, 2 L/min). Antebrachial veins were cannulated. Vivometrics Lifeshirts (Ventura, Calif.) were fitted to the animals for monitoring respiratory function by inductance plethysmography. Abdomen and rib cage deflections were calibrated using the Qualitative Diagnostic Calibration (QDC) procedure, and tidal volume was normalized to 15 mL, which represented a typical tidal volume for these animals as previously measured using conventional techniques. Heart rate was monitored continuously by 3-lead ECG.
ETCO2 was measured via a neonatal nasal cannula connected to a microstream CO2 sensor (Cardell monitor, Model 9405). SpO2 and HR were monitored by pulse oximetry using a reflectance probe (Nelcor Max-Fast) positioned on the inner aspect of the upper arm. HR was also determined from the ECG allowing measurement when animal activity compromised the integrity of pulse oximetry signals. BP was measured in anesthetized animals using a cuff positioned on the ankle. […]

[2] = tested on: midazolam-induced respiratory depression; assay: Benzodiazepine-induced respiratory depression (BIRD), midazolam, rat plethysmography; type: in vivo
Protocol: Compound (XXXVI) was dissolved in 20% hydroxypropyl-beta-cyclodextran in sterile water, and titrated to a pH of 4-8 using pH paper and NaOH or HCl, resulting in a clear, stable solution at a concentration of 1.5 mg/mL. Other compounds: morphine sulfate, supplied as 10 mg/mL solution by (Baxter, Inc) and midazolam, supplied as 5 mg/mL solution (Hospira, Inc.)
Male Sprague-Dawley rats (Harlan, Inc.), 250-350 g at time of dosing, surgically prepared by Harlan with jugular vein cannulas. 12 Chamber Plethysmography System with temperature/humidity compensation (Epstein et al., 1980, J. Apply Physiol. 49:1107-1115); From Buxco, Inc. (PLY 3223; Buxco, Inc, Wilmington, N.C., USA) Biosystem XA, software, v2.11.1. Customized 12 site automated infusion system (Harvard Apparatus; Instech, Inc)
Rat whole body plethysmography was used to evaluate and quantify minute ventilation and the pattern of breathing. A respiratory waveform was generated from the exchange of air between the animal and the chamber. This exchange induced changes in air volume that were measured with a pressure transducer, constituting the respiratory waveform. Atmospheric temperature and humidity were also measured using temperature and humidity probes which sampled chamber conditions. A compensation factor was then determined and applied to the respiratory waveform using a standardized algorithm (Epstein et al., 1980, J. Apply Physiol. 49:1107-1115) to compensate for respiratory conditioning, which was reported as the parameter COMP (see appendix).
All animals were acclimated to plethysmography chambers for at least 1 hour, or until animals were no longer restless (up to 2 hours) prior to data collection. Bolus intravenous (IV) dosing was administered at a rate of 5-10 seconds per dose, and catheters were flushed with 350 μL of sterile saline to be sure of complete drug delivery. […] All plethysmography data was recorded automatically by the Buxco equipment.
Respiratory data were collected on a breath-by-breath basis and averaged into 1 min time bins for data analysis. For each designated acquisition phase, which is the time between doses, percent change from pre-treatment baseline values were calculated for each cohort on multiple ventilatory parameters including respiratory frequency (f), tidal volume (TV), accumulated volume (AV), minute ventilation (MV), inspiratory time (Ti), expiratory time (Te), peak inspiratory flow (PIF), peak expiratory flow (PEF), relaxation time (RT), end inspiratory pause (EIP), end expiratory pause (EEP), delta volume (DV), expiratory flow at 50% TV (EF50), rejection index (Rinx), compensation (Comp), enhanced pause (Penh), pause (PAU), PEF rate (Rpef), relative humidity (RH), and atmospheric temperature (Temp). […]

[3] = tested on: morphine-induced respiratory depression; assay: Effects of morphine and compound on arterial blood gases in the rat; type: in vivo; conditions: for PaCO2 (% reversal) / PaO2 (% reversal) / SaO2 (% reversal) / pH (% reversal): morphine 10 mg/kg
Protocol: Rats with pre-cannulated jugular vein and femoral arterial catheters (for administering drugs and obtaining blood samples respectively) were obtained from Harlan laboratories and kept at the animal facility at Galleon Pharmaceuticals until the experimental procedures. Each animal was dosed with morphine sulfate (10 mg/kg), dissolved in saline at a concentration of 10 mg/mL, via injection into the jugular vein over a period of 20 seconds with a 20 second flush of 0.9% NaCl saline. Prior to morphine administration, two 250 μL samples of arterial blood were aspirated from the femoral artery into a pre-heparinized syringe. The samples were analyzed on Radiometer's ABL Flex 800, where pO2, pCO2, pH, SaO2 and other parameters were recorded. Aspirated volumes of arterial blood were replaced by room temperature sterile saline (˜300 μL) slowly flushed back into the femoral arterial catheter of the rodent to prevent hypovolemia. Morphine was then administered and 2 minutes later another blood sample was taken.
The infusion started at t=15 minutes and ended at t=35 minutes. Arterial blood gas analysis occurred at time points t=12, 18, 25, 35, 40, 45, and 50 minutes.

SMILES: CCCNc1nc(NCCC)nc(N(C)OC)n1.O=S(=O)(O)O [XXXVI, N-(4,6-Bis-n-propylamino-[1,3,5]triazin-2-yl)-N,O-dimethyl-hydroxylamine hydrogen sulfate]
- end-tidal carbon dioxide increases caused by the opioid [1]: full reversal
- minute ventilation [1]: increased minute ventilation
- effect on f, Ti, RT, EIP, dv, EF50, Rinx, Comp, Penh, PAU, Rpef, RH and Temp ([2]; 0.1 mg/kg/min infusion 30 min): had no obvious effect
- effects of midazolam on MV, TV, AV, Te, PIF, PEF and EEP ([2]; 0.1 mg/kg/min infusion 30 min): had an effect to reverse the effects of midazolam
- reversal of the BIRD induced decrease in MV ([2]; 0.1 mg/kg/min infusion, end of infusion period (t=38)): 100
- adverse behavioral effects ([2]; rats, doses tested): no adverse behavioral effects observed
- arterial blood gases, reversal of opioid-induced respiratory depression ([3]; infusion 0.1, 0.3 and 1.0 mg/kg/min, vs vehicle): significantly reverses opioid-induced respiratory depression
- PaCO2 (% reversal) ([3]; infusion 0.03 mg/kg/min): 18 % reversal
- PaO2 (% reversal) ([3]; infusion 0.03 mg/kg/min): −2.0 % reversal
- SaO2 (% reversal) ([3]; infusion 0.03 mg/kg/min): 42 % reversal
- pH (% reversal) ([3]; infusion 0.03 mg/kg/min): 20 % reversal
- PaCO2 (% reversal) ([3]; infusion 0.1 mg/kg/min): 47 % reversal
- PaO2 (% reversal) ([3]; infusion 0.1 mg/kg/min): 16 % reversal
- SaO2 (% reversal) ([3]; infusion 0.1 mg/kg/min): 51 % reversal
- pH (% reversal) ([3]; infusion 0.1 mg/kg/min): 37 % reversal
- PaCO2 (% reversal) ([3]; infusion 0.3 mg/kg/min): 72 % reversal
- PaO2 (% reversal) ([3]; infusion 0.3 mg/kg/min): −16 % reversal
- SaO2 (% reversal) ([3]; infusion 0.3 mg/kg/min): 43 % reversal
- pH (% reversal) ([3]; infusion 0.3 mg/kg/min): 55 % reversal
- PaCO2 (% reversal) ([3]; infusion 1 mg/kg/min): 94 % reversal
- PaO2 (% reversal) ([3]; infusion 1 mg/kg/min): 26 % reversal
- SaO2 (% reversal) ([3]; infusion 1 mg/kg/min): 62 % reversal
- pH (% reversal) ([3]; infusion 1 mg/kg/min): 60 % reversal
